Test results taken from patent publication US5324832A, “Muscarinic antagonists” (priority 1991, dated 1994).
Entries after “also recorded” stand apart in the source; their conditions may differ.

Columns and labels:
[1] = tested on: m1 through m4 muscarinic receptors; assay: Displacement of [3H]NMS from muscarinic receptors (m1-m4), subtype not singled out; assay type: binding; settings: for affinity / potency at muscarinic receptors / receptor subtype selectivity / displacement of [3H]NMS from the receptor: in words; for affinity / potency at muscarinic receptors: qualitative; for Ki: in the vicinity of, subtype not stated, read-out: Ki, inhibition of [3H]NMS binding; for receptor subtype selectivity: m1 versus m2 / among subtypes
Description: (§1) The analogues were screened in binding assays using membranes from cells or tissues containing primarily single subtypes of m1 through m4 muscarinic receptors. Transfected A9L cells were used as a source of homogeneous populations of m1, m3, and m4 receptors. See Jones, S. V.; Barker, J. L.; Buckley, N. J.; Bonner, T. I; Brann, M. R., Mol. Pharmacol., 1988, 34, 421, which is specifically incorporated by reference herein. Rat heart tissue was the source of m2 muscarinic receptors.
(§2) A crude membrane fraction was obtained as follows. Confluent cultures were rinsed three times with phosphate-buffered saline, and lysed in a solution of 2 mM Tris-HCl (pH 7.1) and 1 mM EDTA for 30 min at 2° C. The cells were harvested by scraping and homogenized on a Polytron (10 sec, 75% mix).
(§3) Nuclei were removed in a low speed centrifugation (400 × g, 5 min) and a crude membrane preparation was obtained by centrifugation of the supernatant at 50,000 × g for 20 min. The resulting pellet was resuspended in the lysis buffer and recentrifuged at 50,000 × g for 20 min. Membranes were stored frozen at -70° C. until needed.
(§4) The total volume was 1 mL.
(§5) The incubation was terminated by rapid filtration over GF/B filters using a Brandel cell harvester. The filters were washed three times with ice-cold 0.9% NaCl, equilibrated in scintillation counting fluid and counted on a Beckmann LS 5801 liquid scintillation counter at 47% efficiency.
(§6) It was routinely subtracted from the total counts.

m2 muscarinic receptors = target: T1, m2 muscarinic receptors (Rattus norvegicus, UniProt P10980); assay: Inhibition of [3H]NMS binding, membranes from rat heart (m2 receptors); settings: for factor by which 29a and 32d differ in affinity at m2 receptors: 29a versus 32d
T1 construct: Rat heart tissue was the source of m2 muscarinic receptors; from tissue; host or cells: rat heart
T1 sequence (P10980 1-466): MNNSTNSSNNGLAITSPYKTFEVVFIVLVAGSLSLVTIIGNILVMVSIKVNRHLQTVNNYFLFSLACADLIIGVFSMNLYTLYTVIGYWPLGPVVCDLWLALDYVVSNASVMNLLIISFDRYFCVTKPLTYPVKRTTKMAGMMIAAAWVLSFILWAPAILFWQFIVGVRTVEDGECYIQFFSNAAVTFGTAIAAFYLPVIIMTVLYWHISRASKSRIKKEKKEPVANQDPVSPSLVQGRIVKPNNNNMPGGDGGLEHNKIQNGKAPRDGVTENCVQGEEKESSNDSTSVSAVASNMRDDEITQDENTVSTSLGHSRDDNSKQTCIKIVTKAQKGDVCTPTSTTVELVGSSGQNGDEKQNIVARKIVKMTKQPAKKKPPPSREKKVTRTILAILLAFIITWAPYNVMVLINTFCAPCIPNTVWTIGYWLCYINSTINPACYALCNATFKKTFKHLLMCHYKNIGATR
Description: as §1, §2, §3, §4, §5, §6

m1 muscarinic receptors [2] = target: T2, m1 muscarinic receptors (Rattus norvegicus, UniProt P08482); assay: Inhibition of [3H]NMS binding, membranes of transfected A9L cells expressing m1 receptors; set-up: expressed in transfected cells; host or cells: A9L cells (obtained from Dr. M. Brann, NIH); settings: for factor by which 29a and 32d differ in affinity at m1 receptors: 29a versus 32d; for selectivity ratio m1 versus m2 receptors: in favor of m1 versus m2 receptors
T2 sequence (P08482 1-460): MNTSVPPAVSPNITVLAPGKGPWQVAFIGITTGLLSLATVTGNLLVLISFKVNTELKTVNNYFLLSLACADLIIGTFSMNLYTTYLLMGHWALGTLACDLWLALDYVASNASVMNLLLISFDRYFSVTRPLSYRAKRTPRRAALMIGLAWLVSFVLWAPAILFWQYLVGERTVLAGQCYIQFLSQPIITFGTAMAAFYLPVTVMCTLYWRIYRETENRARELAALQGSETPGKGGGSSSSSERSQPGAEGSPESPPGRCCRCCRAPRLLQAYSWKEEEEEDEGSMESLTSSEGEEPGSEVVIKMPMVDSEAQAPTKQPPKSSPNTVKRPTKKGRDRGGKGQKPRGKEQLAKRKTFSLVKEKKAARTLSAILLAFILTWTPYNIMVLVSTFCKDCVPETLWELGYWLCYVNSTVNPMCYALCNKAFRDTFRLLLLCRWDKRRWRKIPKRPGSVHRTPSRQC
Method: The analogues were screened in binding assays using membranes from cells or tissues containing primarily single subtypes of m1 through m4 muscarinic receptors. Transfected A9L cells were used as a source of homogeneous populations of m1, m3, and m4 receptors. […] Rat heart tissue was the source of m2 muscarinic receptors.
A crude membrane fraction was obtained as follows. Confluent cultures were rinsed three times with phosphate-buffered saline, and lysed in a solution of 2 mM Tris-HCl (pH 7.1) and 1 mM EDTA for 30 min at 2° C.
as §3, §4
The incubation was terminated by rapid filtration over GF/B filters using a Brandel cell harvester.
as §6

muscarinic receptors = settings: in words; cited from earlier work
m1 muscarinic receptors [3] = target: T2, m1 muscarinic receptors; assay type: binding; settings: 1.0 mM compound 26, in words
Method: To assay for irreversible inhibition in rat brain membranes, Scatchard analyses before and after treatment of the membranes with 26 were compared. Even a very […].
Aliquots of brain membranes were incubated with 1.0 mM of freshly dissolved 26 in phosphate-buffered saline (pH 8.0) for 60 min at room temperature, then centrifuged at 15,000 rpm for 10 min.
The resulting pellet was resuspended in 25 mL of fresh phosphate-buffered saline (pH 7.2) and centrifuged as above.

[4] = Storage stability of the salt; assay type: physicochemical; settings: -20 ° C.; dihydrochloride salt
Method: Compound 25 (110 mg, 0.22 mmol) was refluxed for 1 h with thionyl chloride (1 mL) in chloroform (4 mL). The volatile material was removed in vacuo, and the residue was basified with aqueous Na2 CO3 (pH 10) and washed immediately with ether to completely remove the non polar impurity (TLC CHCl3 /CH3 OH/NH4 OH: 9/1/0.1, Rf 0.4). The product was extracted into CHCl3 from the cold aqueous phase and the combined CHCl3 layers were concentrated in vacuo and acidified using ether/HCl. The precipitate was dried in vacuo to yield 29 mg of 26 (25%) as a white solid: mp 188°-190° C.; 1H NMR (D20, HCl salt) δ 3.00-4.00 (m, 14 H), 7.50-7.70 (m, 3 H), 7.70-7.90 (m, 3 H), 8.40 (s, 1 H); MS (CI/NH3) m/e 400 (MH+), 212 (base), 364, 338. […] The salt was stable upon storage at -20 ° C. for at least 6 months.

[5] = in words, versus propargyl derivative 22

CC(C)(C)OC(=O)NCCCCCCN1CCN(CC(=O)N2c3ccccc3C(=O)Nc3cccnc32)CC1 [Compound 32d]
affinity / potency at muscarinic receptors [1]: more potent than the corresponding free amines (34) | factor by which 29a and 32d differ in affinity at m2 receptors (m2 muscarinic receptors; m2): 280 | factor by which 29a and 32d differ in affinity at m1 receptors (m1 muscarinic receptors [2]; m1): 360

NCCN1CCN(CC(=O)N2c3ccccc3C(=O)Nc3cccnc32)CC1 [Compound 27, 5,11-Dihydro-11-[(4-[2-aminoethyl]-1-piperazinyl)acetyl]-6H-pyrido[2,3-b][1,4]benzodiazepine-6-one]
Ki [1]: ~1 µM

CCN(CC)CCCCC1CCN(CC(=O)N2c3ccccc3C(=O)Nc3cccnc32)CC1 [AQ-RA 741]
muscarinic receptor selectivity (literature) (muscarinic receptors): selective for M2 receptors

NCCCCCN1CCN(CC(=O)N2c3ccccc3C(=O)Nc3cccnc32)CC1 [Compound 34c]
selectivity ratio m1 versus m2 receptors (m1 muscarinic receptors [2]): 5 fold

CC(C)(C)OC(=O)NCCC(=O)NCCN1CCN(CC(=O)N2c3ccccc3C(=O)Nc3cccnc32)CC1 [Compound 29a]
affinity / potency at muscarinic receptors [1]: inactivity | factor by which 29a and 32d differ in affinity at m2 receptors (m2 muscarinic receptors; m2): 280 | factor by which 29a and 32d differ in affinity at m1 receptors (m1 muscarinic receptors [2]; m1): 360

C#CCN1CCN(CC(=O)N2c3ccccc3C(=O)Nc3cccnc32)CC1 [Compound 22, 5,11-Dihydro-11-[(4-propargyl-1-piperazinyl)acetyl]-6H-pyrido[2,3-b][1,4]benzodiazepine-6-one]
Ki [1]: ~1 µM | receptor subtype selectivity [1]: non-selective

NCCCCCCCCCCN1CCN(CC(=O)N2c3ccccc3C(=O)Nc3cccnc32)CC1 [Compound 34h, 5,11-Dihydro-11-[(4-[10-aminodecyl]-1-piperazinyl)acetyl]-6H-pyrido[2,3-b][1,4]-benzodiazepine-6-one]
affinity / potency at muscarinic receptors [1]: higher affinities than the corresponding derivatives with the small neutral acetylamino terminal group (35g and 35h); also recorded: most potent in the series of primary amines | receptor subtype selectivity [1]: non-selective | Kd (m2 muscarinic receptors; m2): < 0.02 µM | Kd (m1 muscarinic receptors [2]; m1): < 0.02 µM

CN1CCN(CC(=O)N2c3ccccc3C(=O)N(CCCCCCC#N)c3cccnc32)CC1 [Compound 17b]
affinity / potency at muscarinic receptors [1]: low affinity

CSc1ccc2c(c1)C(=O)Nc1cccnc1N2C(=O)CN1CCN(C)CC1 [Compound 11a]
displacement of [3H]NMS from the receptor [1]: detectable displacement of [^3 H]NMS

COc1ccccc1CNCCCCCCNCCCCCCCCNCCCCCCNCc1ccccc1OC [methoctramine]
muscarinic receptor selectivity (literature) (muscarinic receptors): m2-selective muscarinic antagonist

NCCCCCCCCCN1CCN(CC(=O)N2c3ccccc3C(=O)Nc3cccnc32)CC1 [Compound 34g]
affinity / potency at muscarinic receptors [1]: higher affinities than the corresponding derivatives with the small neutral acetylamino terminal group (35g and 35h)

O=C1Nc2cccnc2N(C(=O)CN2CCN(CCO)CC2)c2ccccc21 [Compound 25, 5,11-Dihydro-11-[(4-[2-hydroxyethyl]-1-piperazinyl)acetyl]-6H-pyrido[2,3-b][1,4]benzodiazepine-6-one]
Ki [1]: ~1 µM

CN1CCN(CC(=O)N2c3cc(CO)ccc3C(=O)Nc3cccnc32)CC1 [Compound 16, 5,11-Dihydro-9-hydroxymethyl-11-[(4-methyl-1-piperazinyl)acetyl]-6H-pyrido[2,3-b] [1,4]benzodiazepine-6-one]
displacement of [3H]NMS from the receptor [1]: detectable displacement of [^3 H]NMS

Cc1scc2c1N(C(=O)CN1CCN(CCCCCCCCCCN)CC1)c1ccccc1NC2=O [Compound 40, n=10, 4,9-Dihydro-3-methyl-4-[[4-(10-aminodecyl)-1-piperazinyl]-acetyl]-10H-thieno[3,4-b][1,5]benzodiazepin-10-one]
Ki (m1 muscarinic receptors [2]; radioligand binding assays, read-out: affinity for m1 receptors (Ki)): 0.00239 µM

CC(=O)NCCN1CCN(CC(=O)N2c3ccccc3C(=O)Nc3cccnc32)CC1 [Compound 28]
Ki [1]: ~1 µM

Cc1scc2c1N(C(=O)CN1CCN(C)CC1)c1ccccc1NC2=O [telenzepine]
muscarinic receptor selectivity (literature) (muscarinic receptors): preserve selectivity for m1 receptors | potency as muscarinic antagonist relative to pirenzepine (literature) (muscarinic receptors): more potent antagonist | selectivity ratio / factor for m1 receptors (m1 muscarinic receptors [2]; m1 versus m2 receptors): 25

CCN1C(=O)c2ccccc2N(C(=O)CN2CCN(C)CC2)c2ncccc21 [Compound 17a, 5-Ethyl-11-hydro-[(4-methyl-1-piperazinyl)acetyl]-6H-pyrido[2,3-b][1,4]-benzodiazepine-6-one]
affinity / potency at muscarinic receptors [1]: low affinity

O=C1Nc2cccnc2N(C(=O)CN2CCN(Cc3ccccc3)CC2)c2ccccc21 [Compound 23, 5,11-Dihydro-11-[(4-benzyl-1-piperazinyl)acetyl]-6H-pyrido[2,3-b] [1,4]benzodiazepine-6-one]
receptor subtype selectivity [1]: non-selective for m1 versus m2 receptors | affinity at m2 muscarinic receptors relative to 22 (m2 muscarinic receptors; [5]): greater affinity at m1 and m2 muscarinic receptors | affinity at m1 muscarinic receptors relative to 22 (m1 muscarinic receptors [2]; [5]): greater affinity at m1 and m2 muscarinic receptors

Cl.Cl.O=C1Nc2cccnc2N(C(=O)CN2CCN(CCCl)CC2)c2ccccc21 [Compound 26, 5,11-Dihydro-11-[(4-[2-chloroethyl]-1-piperazinyl)acetyl]-6H-pyrido[2,3-b][1,4]benzodiazepine-6-one dihydrochloride]
change in Kd and Bmax of [3H]NMS after preincubation (m1 muscarinic receptors [3]): no change in the Kd and Bmax values | irreversible inhibition of m1 receptors (m1 muscarinic receptors [3]; dihydrochloride): not an irreversible inhibitor of m1 receptors; also recorded: lack of irreversible inhibition | affinity / potency at muscarinic receptors [1]: high binding affinity | receptor subtype selectivity [1]: retained selectivity for m1 receptors | stability of the salt upon storage [4]: at least 6 months | selectivity ratio m1 versus m2 receptors (m1 muscarinic receptors [2]): 4.4 fold
